From US20130123281A1, “Compositions and Methods for Inhibition of TBL-1 Binding to Disease-Associated Molecules” (BETA CAT PHARMACEUTICALS, LLC, priority 2011, published 2013)

Legend:
[1] = target: T1, full length recombinant human β-catenin (Homo sapiens, UniProt P35222); assay: Saturation binding assay with biotinylated compound on coated β-catenin; conditions: biotinylated compound 0.1 nM to 10 μM, 2 h at room temperature
T1 construct: full length recombinant human β-catenin (ABNOVA); purchased ABNOVA
T1 sequence (P35222 1-781): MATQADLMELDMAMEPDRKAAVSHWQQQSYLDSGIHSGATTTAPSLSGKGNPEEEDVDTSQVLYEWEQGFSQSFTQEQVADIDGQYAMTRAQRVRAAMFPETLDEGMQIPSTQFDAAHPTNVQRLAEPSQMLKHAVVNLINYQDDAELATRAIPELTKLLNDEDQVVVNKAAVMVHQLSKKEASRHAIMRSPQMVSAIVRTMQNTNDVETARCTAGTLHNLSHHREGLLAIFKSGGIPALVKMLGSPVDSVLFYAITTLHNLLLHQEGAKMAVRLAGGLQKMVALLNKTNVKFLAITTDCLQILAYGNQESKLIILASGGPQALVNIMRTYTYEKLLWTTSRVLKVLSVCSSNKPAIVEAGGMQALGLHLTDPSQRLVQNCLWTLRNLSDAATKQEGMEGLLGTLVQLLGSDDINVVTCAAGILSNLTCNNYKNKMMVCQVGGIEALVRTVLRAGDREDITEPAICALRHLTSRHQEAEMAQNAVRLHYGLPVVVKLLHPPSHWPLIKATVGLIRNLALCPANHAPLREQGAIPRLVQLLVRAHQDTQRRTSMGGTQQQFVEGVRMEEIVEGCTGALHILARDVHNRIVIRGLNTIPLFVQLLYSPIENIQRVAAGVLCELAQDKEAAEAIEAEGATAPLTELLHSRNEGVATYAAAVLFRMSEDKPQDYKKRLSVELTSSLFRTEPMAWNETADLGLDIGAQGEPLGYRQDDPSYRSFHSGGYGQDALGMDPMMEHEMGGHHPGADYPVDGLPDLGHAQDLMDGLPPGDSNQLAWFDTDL
Procedure: (§1) Additionally, Compound 1 can be modified to contain a functional group, such as biotin, capable of being attached to a solid support and test agents identified that disrupt the binding of immobilized Compound 1 to TBL1 protein. High affinity binding Elisa 96 well plate (Maxisorp, Nunc) was coated with 100 μl to each well of full length recombinant human TBL1 or full length recombinant human β-catenin (ABNOVA) diluted to a final concentration of 1 μg/ml in carbonate/bicarbonate coating buffer, sealed to prevent evaporation, and incubated O/N at 4° C. […] The sealed plate was incubated for 2 h at room temperature, washed 3 times with PBS 0.05% Tween-20, and then the bounded compound was detected by streptavidin-HRP conjugated antibody (Cell Signaling Tech) diluted in blocking buffer. Elisa was developed by addition of ABTS HRP substrate (SIGMA), and the optical density (OD) for each well was read with a microplate reader set to 405 nm. […]
(§2) To determine whether the ability of BC2059 to interfere with TBL1:β-catenin complex formation is due to direct interaction between TBL1 or β-catenin and the compound, we performed saturation binding assays in a in vitro system. […] The sealed plate was incubated for 2 h at RT, washed 3 times with PBS 0.05% Tween-20, and then the bounded compound was detected by streptavidin-HRP conjugated antibody (Cell Signaling Tech) diluted in blocking buffer. […]

[2] = target: T2, interaction of β-catenin with TBL1 (Homo sapiens, UniProt O60907); assay: Immunoprecipitation with TBL1 antibody and Western blot for β-catenin; assay type: cell-based; conditions: HCT15 cells treated for 6 h, Western blot
T2 construct: endogenous in cells; host or cells: HCT15 (A2 also names HCT116)
T2 sequence (O60907 1-577): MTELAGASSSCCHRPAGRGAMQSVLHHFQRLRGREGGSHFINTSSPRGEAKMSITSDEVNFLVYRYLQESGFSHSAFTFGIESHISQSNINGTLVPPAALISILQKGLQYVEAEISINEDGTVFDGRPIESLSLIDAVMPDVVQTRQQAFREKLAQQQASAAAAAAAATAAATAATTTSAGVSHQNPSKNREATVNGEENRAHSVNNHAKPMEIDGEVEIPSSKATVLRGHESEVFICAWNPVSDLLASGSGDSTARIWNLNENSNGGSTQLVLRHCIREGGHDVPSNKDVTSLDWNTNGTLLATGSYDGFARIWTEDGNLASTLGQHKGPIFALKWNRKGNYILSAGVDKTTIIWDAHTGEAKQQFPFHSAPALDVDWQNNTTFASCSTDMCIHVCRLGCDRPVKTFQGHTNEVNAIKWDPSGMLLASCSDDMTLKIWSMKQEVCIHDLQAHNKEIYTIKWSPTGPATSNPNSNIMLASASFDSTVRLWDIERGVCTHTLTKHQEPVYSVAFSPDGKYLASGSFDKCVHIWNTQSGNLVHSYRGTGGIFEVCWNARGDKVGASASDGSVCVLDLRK
Procedure: FIG. 2 depicts Western blot of an immunoprecipitation using TBL1 antibody. HCT15 cells were incubated with DMSO or indicated concentration of compound for 6 hours. Cell lysates were made and immunoprecipitated with TBL1 antibody. Proteins were separated on an SDS gel, transferred to a membrane and probed with antibodies to β-catenin and to TBL1. Briefly, the HCT15 cell line was seeded at 70% confluence in medium containing 10% FBS and penicillin/streptomycin. After 24 h the cells were treated with Compound 1 for 6 h. Cell lysates were harvested, precleared with protein NG sepharose (Santa Cruz Biotech), and TBL1 was immunoprecipitated using mouse TBL1 antibody (Santa Cruz Biotech) conjugated to protein G sepharose (Santa Cruz Biotech). Immunoprecipitated proteins were resolved on a 10% SDS-PAGE gel followed by transfer of proteins to a nitrocellulose membrane. Western blot analysis was done using antibodies to detect β-catenin protein (BD Transduction Laboratories) and TBL1 protein (Santa Cruz Biotech).

[3] = target: T3, full length recombinant human TBL1 (Homo sapiens, UniProt O60907); assay: Saturation binding assay with biotinylated compound on coated TBL1; conditions: biotinylated compound 0.1 nM to 10 μM, 2 h at room temperature; read-out: IC50 of binding to TBL1 at the equilibrium
T3 construct: full length recombinant human TBL1 or full length recombinant human β-catenin; purchased ABNOVA
T3 sequence (O60907 1-577): T2 sequence (O60907 1-577)
Procedure: as §1, §2

TBL1:β-catenin complex = target: T4, TBL1:β-catenin complex (Homo sapiens, UniProt O60907); assay: Sandwich ELISA capturing the TBL1:β-catenin complex from treated cell lysates; assay type: cell-based
T4 construct: endogenous in cells; host or cells: HCT15 (A2 also names HCT116)
T4 sequence (O60907 1-577): T2 sequence (O60907 1-577)
Procedure: HCT 15 cells are incubated with 20 mM LiCl to induce the Wnt pathway. After 24 h fresh medium with 20 mM LiCl and test agent is added at concentration in the range of 0.3 nM to 3 μM for 6 hours at 37° C. Protein lysates are prepared from cells lysed in RIPA buffer containing protease inhibitors, High affinity binding Sandwich Elisa assays were prepared in 96 well Maxisorp plates (NUNC) by coating with 100 μl in each well of unlabeled capture TBL1 antibody (Santa Cruz Biotech) diluted to a final concentration of 2 ug/ml in carbonate/bicarbonate coating buffer, and incubated 18 hours at 4° C. […] The sealed plate was incubated for 2 h at RT, washed 3 times with PBS 0.05% Tween-20, and then the complex and the recombinant protein was detected by antibody against β-catenin (Cell Signaling Tech) and secondary antibody HRP-conjugated (Sigma). Signal was detected by addition of ABTS HRP substrate
(SIGMA), and read with a microplate reader set to 405 nm.
To determine the amount of β-catenin captured, a standard curve was created using recombinant β-catenin (100 fg to 100 ng, Abnova) added instead of cell lysates in the above procedure. Intensity of signal was compared to values generated using test article treated lysates and approximate amount of bound beta catenin determined. […]

TBL1 = target: T5, TBL1 (Homo sapiens, UniProt O60907); assay: TBL1 inhibition (Table 5); assay type: binding
T5 construct: full length recombinant human TBL1 or full length recombinant human β-catenin; purchased ABNOVA
T5 sequence (O60907 1-577): T2 sequence (O60907 1-577)
Procedure: Briefly, for homologous competitive assay, a single concentration of 50 nM of biotinylated compound was added to the wells containing TBL1 recombinant protein, in the presence of various concentrations of unlinked compound (range of 0.1 nM to 10 μM) diluted in binding buffer. The sealed plate was incubated for 2 h at RT, and then processed as described above. For the heterologous competitive binding assay, 75 nM of β-catenin was used in place of the biotinylated compound, and the bounded protein was detected by anti-β-catenin antibody (Cell Signaling Tech) followed by secondary HRP-conjugated antibody.
To determine whether the ability of BC2059 to interfere with TBL1:β-catenin complex formation is due to direct interaction between TBL1 or β-catenin and the compound, we performed saturation binding assays in a in vitro system. High affinity binding Elisa 96 well plate (Maxisorp, Nunc) was coated with 100 ul to each well of full length recombinant human TBL1 or full length recombinant human β-catenin diluted to a final concentration of 1 ug/ml in carbonate/bicarbonate coating buffer, sealed to prevent evaporation, and incubated O/N at 4° C. After washing the plate 3 times with PBS 0.05% Tween-20, and blocking the plate with 200 μl of PBS 1% BSA each well for 1 h at RT, 100 μl of biotinylated compound was added to each well containing the recombinant proteins, at concentration in the range of 0.1 nM to 10 μM, diluted in binding buffer (50 mM TrisHCl pH 7.4, 10 mM MgCl2). The sealed plate was incubated for 2 h at RT, washed 3 times with PBS 0.05% Tween-20, and then the bounded compound was detected by streptavidin-HRP conjugated antibody (Cell Signaling Tech) diluted in blocking buffer. Elisa was developed by addition of ABTS HRP substrate (SIGMA), and the optical density (OD) for each well was read with a microplate reader set to 405 nm. To validate the saturation binding assay, homologous and heterologous competitive binding experiment were performed in an in vitro system. Briefly, for homologous competitive assay, a single concentration of 50 nM of biotinylated compound was added to the wells containing TBL1 recombinant protein, in the presence of various concentrations of unlinked compound (range of 0.1 nM to 10 uM) diluted in binding buffer. The sealed plate was incubated for 2 h at RT, and then processed as described above. For the heterologous competitive binding assay, 75 nM of β-catenin was used in place of the biotinylated compound, and the bounded protein was detected by anti-β-catenin antibody (Cell Signaling Tech) followed by secondary HRP-conjugated antibody.

HCT116 cells = assay: Cell screening in HCT116 cells (Table 5); assay type: cell-based; conditions: Homo sapiens, HCT-116

C[C@@H]1C[C@H](C)CN(S(=O)(=O)c2ccc3c(c2)C(=NO)c2cc(S(=O)(=O)N4C[C@H](C)C[C@H](C)C4)ccc2C3=NO)C1 [Compound 1]
binding to β-catenin [1]: not β-catenin | disruption of the interaction of β-catenin with TBL1 [2]: able to disrupt the interaction of β-catenin with TBL1 | IC50 [3]: 20 nM | IC50 (TBL1:β-catenin complex; HCT 15 cells, 20 mM LiCl, test agent 6 hours, read-out: IC50, interference with TBL1 and β-catenin interaction): 10 to 20 nM

CN(Cc1ccncc1)Cc1ccc(-c2nc(-c3cccnc3)cc(=O)[nH]2)cc1 [Compound 10, 2-(4-((methyl(pyridin-4-ylmethyl)amino)methyl)phenyl)-6-(pyridin-3-yl)pyrimidin-4(3H)-one]
EC50 (TBL1): 0.28 µM

Cc1ccc(CN(C)Cc2ccc(-c3nc(-c4cccnc4)cc(=O)[nH]3)cc2)o1 [Compound 11]
EC50 (TBL1): 0.29 µM

CC(C)N(C)Cc1ccc(-c2nc(-c3cccnc3)cc(=O)[nH]2)cc1 [Compound 12, 2-(4-((isopropyl(methyl)amino)methyl)phenyl)-6-(pyridin-3-yl)pyrimidin-4(3H)-one]
EC50 (TBL1): 102 µM

CC(Nc1ncnc2[nH]cnc12)c1cnn(-c2ccccc2F)c1 (stereo not shown) [Compound 15, N-(1-(1-(2-fluorophenyl)-1H-pyrazol-4-yl)ethyl)-9H-purin-6-amine]
EC50 (TBL1): 0.054 µM | EC50 (TBL1:β-catenin complex; compound 0.3 nM to 3 μM for 6 h, cell lysates, read-out: EC50 μM TBL1: β-Catenine): 0.41 µM | EC50 (HCT116 cells): 0.127 µM
